Values quoted from earlier work in patent publication US8278478B2, “Process for the synthesis of hydrochloride salt of N-fatty acylsubstituted amino acid ethyl esters” (priority 2009, dated 2012).

Conditions: at 20° C.

solubility in water: greater than 247 g/kg
SMILES: CCCCCCCCCCCC(=O)N[C@@H](CCCNC(=N)N)C(=O)OCC.Cl [Ethyl lauroyl arginate, ethyl-Nα-lauroyl-L-arginate HCl]
